Source: publication PMC7998589, “A Radiobrominated Tyrosine Kinase Inhibitor for EGFR with L858R/T790M Mutations in Lung Carcinoma” (Pharmaceuticals, 2021)

How the values were obtained:
H1975 (EGFR L858R/T790M) = system: H1975 (EGFR L858R/T790M); parameters: method as in PMID 32599930; settings: WST-8, ref [9]; cited from earlier work
H3255 (EGFR L858R) = system: H3255 (EGFR L858R); parameters: method as in PMID 32599930; settings: WST-8, ref [9]; cited from earlier work
H441 (wild-type EGFR) = system: H441 (wild-type EGFR); parameters: method as in PMID 32599930; settings: WST-8, ref [9]; cited from earlier work
EGFR L858R/T790M = system: EGFR L858R/T790M; parameters: method as in PMID 32599930; settings: ref [9]; cited from earlier work
[1] = Determination of partition coefficient (n-octanol / 0.1 M phosphate buffer pH 7.4); assay type: physicochemical
Procedure: To determine the lipophilicity, the partition coefficient of [^77Br]9 was measured as described previously.

[2] = Stability assessment in PBS and murine plasma; assay type: in vitro ADME, mouse; settings: 1 h, 37 °C
Procedure: The stability profile of [^77Br]9 in phosphate-buffered saline (PBS) and murine plasma is presented in Supporting Information (Figure S2). [^77Br]9 was >80% intact in PBS and murine plasma after incubation for 1 h at 37 °C. Its purity decreased to 57% after 24 h of incubation.
To confirm the stability, we measured the purity of radiotracer after incubation in PBS and mouse plasma, respectively, as described previously.

[3] = system: H1975 (L858R/T790M double mutations EGFR); assay: Cellular uptake and blocking study, H1975; assay type: cell-based, human
Procedure: H1975 (1 × 10^5 cells/well), H441 (1 × 10^5 cells/well), and H3255 (2 × 10^5 cells/well) NSCLC cells were cultured in 6 well plates. Cells were incubated in medium with 10% FBS and 100 IU/mL penicillin–streptomycin at 37 °C in a humidified atmosphere with 5% CO2 for 24 h. […] The cells were dissolved by a 1.0 M NaOH aqueous solution (0.5 mL × 2). The cell lysate was transferred into a test tube. The radioactivity of ^77Br was measured by an auto well gamma counter at a 100–600 keV energy range. […] The BCA protein assay kit protocol was used to determine the protein concentration.

[4] = Biodistribution of double tracers in normal mice; assay type: in vivo; settings: ddY mice
Procedure: (§1) One month later, ^125I activity was determined.

H1975 and H441 tumors = assay: Biodistribution of double tracers in tumor-bearing mice; assay type: in vivo, BALB/c nu/nu mice
Procedure: Six weeks old male ddY mice and four weeks old female BALB/c nu/nu mice were purchased from Japan SLC Inc. (Hamamatsu, Japan). Tumor-bearing mice were prepared by subcutaneous injection of cells suspended in 100 μL medium to the female BALB/c nu/nu mice. H1975 cells (5 × 10^6 cells) were implanted in the right shoulder, and H441 cells (3 × 10^6 cells) were implanted in the left shoulder. The tumor reached palpable size after post-inoculation 12 and 9 days for H1975 and H441, respectively.
as §1

C=CC(=O)Nc1cccc(Nc2nc(Nc3ccc(N4CCN(C(C)=O)CC4)cc3OC)ncc2C(F)(F)F)c1 [CO-1686, rociletinib]
IC50 (H1975 (EGFR L858R/T790M)): 140 ± 50 nM
IC50 (H3255 (EGFR L858R)): 150 ± 20 nM
IC50 (H441 (wild-type EGFR)): 260 ± 40 nM
selectivity toward EGFR L858R/T790M compared with wild-type EGFR (EGFR L858R/T790M): high selectivity

C=CC(=O)Nc1cc(I)cc(Nc2nc(Nc3ccc(N4CCN(C(C)=O)CC4)cc3OC)ncc2C(F)(F)F)c1 [ICO1686]
IC50 (H1975 (EGFR L858R/T790M)): 200 ± 50 nM
IC50 (H3255 (EGFR L858R)): 500 ± 210 nM
IC50 (H441 (wild-type EGFR)): 1840 ± 440 nM
selectivity toward EGFR L858R/T790M compared with wild-type EGFR (EGFR L858R/T790M): high selectivity

C=CC(=O)Nc1cc([77Br])cc(Nc2nc(Nc3ccc(N4CCN(C(C)=O)CC4)cc3OC)ncc2C(F)(F)F)c1 [[^77Br]9]
logP [1]: 1.72 ± 0.21
intact in PBS ([2]; PBS): > 80%
intact in murine plasma ([2]; murine plasma): > 80%
accumulation in H1975 versus H3255 and H441 ([3]; 4 h of incubation): significantly higher
reduction of uptake upon pretreatment with CO-1686 ([3]; H1975): ~60%
accumulation of radioactivity with pretreatment with excess CO-1686 ([3]; H1975, 4 h, CO-1686 100 µM blocking): 56.9 % dose/mg protein
accumulation of radioactivity (cell uptake) ([3]; H1975, 4 h incubation): 136.3 % dose/mg protein
effect of gefitinib on uptake ([3]; H1975, gefitinib 100 µM blocking): not significantly reduced
Biodistribution, Blood ([4]; 10 min after i.v. injection): 3.57 % ID/g
Biodistribution, Bone ([4]; 10 min after i.v. injection): 2.76 % ID/g
Biodistribution, Brain ([4]; 10 min after i.v. injection): 0.45 % ID/g
Biodistribution, Heart ([4]; 10 min after i.v. injection): 4.57 % ID/g
Biodistribution, Kidney ([4]; 10 min after i.v. injection): 11.68 % ID/g
Biodistribution, Large intestine ([4]; 10 min after i.v. injection): 2.83 % ID/g
Biodistribution, Liver ([4]; 10 min after i.v. injection): 11.04 % ID/g
Biodistribution, Lung ([4]; 10 min after i.v. injection): 8.72 % ID/g
Biodistribution, Muscle ([4]; 10 min after i.v. injection): 3.18 % ID/g
Biodistribution, Pancreas ([4]; 10 min after i.v. injection): 3.78 % ID/g
Biodistribution, Small intestine ([4]; 10 min after i.v. injection): 25.38 % ID/g
Biodistribution, Spleen ([4]; 10 min after i.v. injection): 5.11 % ID/g
Biodistribution, Stomach ([4]; 10 min after i.v. injection): 6.17 % ID/organ
Biodistribution, Blood ([4]; 1 h after i.v. injection): 3.24 % ID/g
Biodistribution, Bone ([4]; 1 h after i.v. injection): 1.66 % ID/g
Biodistribution, Brain ([4]; 1 h after i.v. injection): 0.95 % ID/g
Biodistribution, Heart ([4]; 1 h after i.v. injection): 2.93 % ID/g
Biodistribution, Kidney ([4]; 1 h after i.v. injection): 4.21 % ID/g
Biodistribution, Large intestine ([4]; 1 h after i.v. injection): 3.18 % ID/g
Biodistribution, Liver ([4]; 1 h after i.v. injection): 3.83 % ID/g
Biodistribution, Lung ([4]; 1 h after i.v. injection): 4.97 % ID/g
Biodistribution, Muscle ([4]; 1 h after i.v. injection): 2.02 % ID/g
Biodistribution, Pancreas ([4]; 1 h after i.v. injection): 3.58 % ID/g
Biodistribution, Small intestine ([4]; 1 h after i.v. injection): 26.49 % ID/g
Biodistribution, Spleen ([4]; 1 h after i.v. injection): 4.83 % ID/g
Biodistribution, Stomach ([4]; 1 h after i.v. injection): 7.00 % ID/organ
Biodistribution, Blood ([4]; 4 h after i.v. injection): 3.19 % ID/g
Biodistribution, Bone ([4]; 4 h after i.v. injection): 1.54 % ID/g
Biodistribution, Brain ([4]; 4 h after i.v. injection): 0.74 % ID/g
Biodistribution, Heart ([4]; 4 h after i.v. injection): 1.87 % ID/g
Biodistribution, Kidney ([4]; 4 h after i.v. injection): 2.81 % ID/g
Biodistribution, Large intestine ([4]; 4 h after i.v. injection): 47.73 % ID/g
Biodistribution, Liver ([4]; 4 h after i.v. injection): 3.72 % ID/g
Biodistribution, Lung ([4]; 4 h after i.v. injection): 5.08 % ID/g
Biodistribution, Muscle ([4]; 4 h after i.v. injection): 1.13 % ID/g
Biodistribution, Pancreas ([4]; 4 h after i.v. injection): 3.04 % ID/g
Biodistribution, Small intestine ([4]; 4 h after i.v. injection): 5.23 % ID/g
Biodistribution, Spleen ([4]; 4 h after i.v. injection): 2.92 % ID/g
Biodistribution, Stomach ([4]; 4 h after i.v. injection): 6.68 % ID/organ
Biodistribution, Blood ([4]; 24 h after i.v. injection): 1.99 % ID/g
Biodistribution, Bone ([4]; 24 h after i.v. injection): 0.89 % ID/g
Biodistribution, Brain ([4]; 24 h after i.v. injection): 0.42 % ID/g
Biodistribution, Heart ([4]; 24 h after i.v. injection): 0.80 % ID/g
Biodistribution, Kidney ([4]; 24 h after i.v. injection): 1.33 % ID/g
Biodistribution, Large intestine ([4]; 24 h after i.v. injection): 0.98 % ID/g
Biodistribution, Liver ([4]; 24 h after i.v. injection): 1.04 % ID/g
Biodistribution, Lung ([4]; 24 h after i.v. injection): 1.62 % ID/g
Biodistribution, Muscle ([4]; 24 h after i.v. injection): 0.47 % ID/g
Biodistribution, Pancreas ([4]; 24 h after i.v. injection): 1.13 % ID/g
Biodistribution, Small intestine ([4]; 24 h after i.v. injection): 1.00 % ID/g
Biodistribution, Spleen ([4]; 24 h after i.v. injection): 1.14 % ID/g
Biodistribution, Stomach ([4]; 24 h after i.v. injection): 2.21 % ID/organ
eliminated in feces ([4]; 24 h postinjection): 35%
Biodistribution, Blood (H1975 and H441 tumors; 1 h after i.v. injection): 5.64 % ID/g
Biodistribution, Bone (H1975 and H441 tumors; 1 h after i.v. injection): 1.93 % ID/g
Biodistribution, Brain (H1975 and H441 tumors; 1 h after i.v. injection): 1.49 % ID/g
Biodistribution, H441 tumor (H1975 and H441 tumors; 1 h after i.v. injection): 3.71 % ID/g
Biodistribution, H1975 tumor (H1975 and H441 tumors; 1 h after i.v. injection): 4.51 % ID/g
Biodistribution, Heart (H1975 and H441 tumors; 1 h after i.v. injection): 5.36 % ID/g
Biodistribution, Kidney (H1975 and H441 tumors; 1 h after i.v. injection): 7.75 % ID/g
Biodistribution, Large intestine (H1975 and H441 tumors; 1 h after i.v. injection): 24.33 % ID/g
Biodistribution, Liver (H1975 and H441 tumors; 1 h after i.v. injection): 15.89 % ID/g
Biodistribution, Lung (H1975 and H441 tumors; 1 h after i.v. injection): 11.42 % ID/g
Biodistribution, Muscle (H1975 and H441 tumors; 1 h after i.v. injection): 3.42 % ID/g
Biodistribution, Pancreas (H1975 and H441 tumors; 1 h after i.v. injection): 12.95 % ID/g
Biodistribution, Small intestine (H1975 and H441 tumors; 1 h after i.v. injection): 64.52 % ID/g
Biodistribution, Spleen (H1975 and H441 tumors; 1 h after i.v. injection): 9.19 % ID/g
Biodistribution, Stomach (H1975 and H441 tumors; 1 h after i.v. injection): 1.31 % ID/organ
Biodistribution, Blood (H1975 and H441 tumors; 6 h after i.v. injection): 5.35 % ID/g
Biodistribution, Bone (H1975 and H441 tumors; 6 h after i.v. injection): 1.95 % ID/g
Biodistribution, Brain (H1975 and H441 tumors; 6 h after i.v. injection): 1.39 % ID/g
Biodistribution, H441 tumor (H1975 and H441 tumors; 6 h after i.v. injection): 3.30 % ID/g
Biodistribution, H1975 tumor (H1975 and H441 tumors; 6 h after i.v. injection): 3.48 % ID/g
Biodistribution, Heart (H1975 and H441 tumors; 6 h after i.v. injection): 2.99 % ID/g
Biodistribution, Kidney (H1975 and H441 tumors; 6 h after i.v. injection): 4.91 % ID/g
Biodistribution, Large intestine (H1975 and H441 tumors; 6 h after i.v. injection): 59.40 % ID/g
Biodistribution, Liver (H1975 and H441 tumors; 6 h after i.v. injection): 6.76 % ID/g
Biodistribution, Lung (H1975 and H441 tumors; 6 h after i.v. injection): 6.29 % ID/g
Biodistribution, Muscle (H1975 and H441 tumors; 6 h after i.v. injection): 1.79 % ID/g
Biodistribution, Pancreas (H1975 and H441 tumors; 6 h after i.v. injection): 4.28 % ID/g
Biodistribution, Small intestine (H1975 and H441 tumors; 6 h after i.v. injection): 12.46 % ID/g
Biodistribution, Spleen (H1975 and H441 tumors; 6 h after i.v. injection): 2.04 % ID/g
Biodistribution, Stomach (H1975 and H441 tumors; 6 h after i.v. injection): 1.27 % ID/organ
